Consider 9 molecules from article PMC1190152, “Archazolid and apicularen: Novel specific V-ATPase inhibitors” (BMC Biochemistry, 2005).

The remaining activity is what remains of the control signal, in per cent.

The target of assay [1] is T1, F-ATPase (Bos taurus, UniProt P00829).
T1 construct: Submitochondrial particles were obtained by ultrasonic treatment of the mitochondria; from tissue; host or cells: beef heart mitochondria, submitochondrial particles
Put plainly: Inhibition of F-ATPase activity in submitochondrial particles from beef heart. Type of assay: biochemical. The procedure:
(§1) The V-ATPase holoenzyme was purified as published elsewhere. Preparation of highly purified membranes containing Na^+/K^+-ATPase from pig kidney followed the protocol of Jørgensen with the three main steps of differential centrifugation, incubation with SDS in the presence of ATP and sucrose density gradient centrifugation in a fixed angle rotor, and led to a specific enzyme activity which was in the same range as that reported by the authors. The resulting sample was stored frozen at -20°C. To prepare crude membrane extracts, the hearts of three mice were washed three times with an ice-cold buffer of pH 8.1 consisting of 0.25 M sucrose, 5 mM Tris-HCl, 5 mM EDTA, and 10 mM Pefabloc SC (Biomol), homogenized in 5 ml of this buffer and centrifuged at 4°C for 25 min at 233,000 × gmax in a fixed angle rotor. The resulting pellet was resuspended in 5 ml of a buffer of pH 7.5, consisting of 5 mM Tris-MOPS (3-morpholinopropanesulfonic acid), 10 mM NaCl, 10 mM Pefabloc SC, 9.6 mM 2-mercaptoethanol, 0.53 mM EGTA and 0.1 % Triton X-100. After an aliquot for protein determination had been taken, 10% bovine serum albumin (final concentration) was added to the suspension which was then stored on ice until the activity assays were run. Beef heart mitochondria were isolated by differential centrifugation, following the protocol of Smith by using a blender to homogenize the heart mince. The initial homogenization buffer consisted of 250 mM saccharose, 10 mM KH2PO4, 10 mM Tris, 2 mM EGTA, 2 mM MgCl2, pH 7.4, and further isolation procedures were carried out in the same medium without EGTA [24]. Submitochondrial particles were obtained by ultrasonic treatment of the mitochondria.
(§2) Standard V-ATPase assays with a final volume of 160 μl and a pH of 8.1 consisted of 3–4 μg of protein, 50 mM Tris-MOPS, 3 mM 2-mercaptoethanol, 1 mM MgCl2, 20 mM KCl, 0.003% C12E10, 20 mM NaCl, and 3 mM Tris-HCl. After 5 min of pre-incubation at 30°C with or without inhibitors, 1 mM Tris-ATP was added and after incubation for 2 min the reaction was stopped by placing the tube in liquid nitrogen. Assays using Na^+/K^+-ATPase were performed in 160 μl at pH 7.5 and contained 0.5 μg of protein, 50 mM Tris-MOPS, 5 mM imidazole, 0.2 mM EDTA, 4 mM MgCl2, 20 mM KCl and 100 mM NaCl. After 5 min of pre-incubation at 37°C with or without inhibitors, 3 mM Tris-ATP was added and after 1 min of incubation the reaction was stopped by placing the tube in liquid nitrogen. […] After 5 min of pre-incubation at 30°C with or without inhibitors, 1 mM Tris-ATP was added and after an incubation time of 10 min the reaction was stopped by placing the tubes in liquid nitrogen. ATPase assays with submitochondrial particles from beef heart were performed in a final volume of 1 ml and a pH of 8.0. The samples contained 9–12 μg protein, 50 mM Tris, 50 mM KCl and 2.5 mM MgCl2. After 5 min of preincubation with or without inhibitors, 5 mM ATP was added, and after an additional incubation time of 15 min the reaction was stopped by the addition of 0.4 ml of 20 % TCA.
(§3) Inorganic phosphate produced in the assays of V-ATPase, Na^+/K^+-ATPase and mouse heart F-ATPase was measured according the protocol of Wieczorek et al., while the determination of inorganic phosphate produced in the assays of beef heart F-ATPase followed the method of Fiske and Subarrow using ascorbic acid as reducing agent.

The target of assay [2] is T2, F-ATPase (Mus musculus, UniProt P56480).
T2 construct: we prepared mitochondria rich crude membranes from mouse heart; from tissue; host or cells: mouse heart, crude membrane extract
Nature of the assay: Inhibition of F-ATPase activity in crude membranes from mouse heart. Type of assay: biochemical. Here is the method:
as §1, §2, §3

Assay [3] deals with T3, V-ATPase holoenzyme from the midgut of the tobacco hornworm (Manduca sexta, UniProt P31403).
T3 construct: purified V-ATPase holoenzyme from the midgut of the tobacco hornworm; from tissue; host or cells: midgut of fifth instar Manduca sexta larvae
T3 sequence (P31403 whole entry): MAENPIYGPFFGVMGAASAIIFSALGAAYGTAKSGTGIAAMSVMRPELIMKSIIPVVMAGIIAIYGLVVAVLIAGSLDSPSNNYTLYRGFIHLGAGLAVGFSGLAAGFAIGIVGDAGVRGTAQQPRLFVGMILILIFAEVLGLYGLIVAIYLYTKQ
More on the design: method as in PMID 12186879. The settings on record: ref [10], cited from earlier work.

The next assay concerns the target T4, Vo subunit c (Manduca sexta, UniProt P31403).
T4 construct: from tissue; host or cells: midgut of Manduca sexta larvae (purified V-ATPase)
Also noted: method as in PMID 12186879. The settings on record: previous study; ref [10]; cited from earlier work.

A further assay has as its system bacterial growth. The settings on record: ref [11],[15],[17]; cited from earlier work.
For a further assay, the system named is L-929. Also noted: method as in PMID 12931860. The settings on record: L-929, murine connective tissue; ref [17]; read-out: IC50 growth inhibition; cited from earlier work.
The subject of another assay is 3Y1. Nature of the assay: Growth inhibition of 3Y1 cells (MTT assay). The settings on record: Rattus norvegicus, 3Y1, 120 h, read-out: IC50 growth inhibition. Type of assay: cell-based, rat. Here is the method:
(§4) Cell lines were obtained from the German Collection of Microorganisms and Cell Cultures (DSMZ). Cell lines 3Y1 and M1 (embryonal fibroblasts from 129/Ola × C57BL/6 mice, [30]) were a generous gift from Dr. S. Miyamoto, Fukoka, Japan, and Dr. P. F. Mühlradt, Braunschweig, Germany. All cell lines were cultivated under conditions recommended by the supplier. Growth inhibition was measured in microtiterplates. Aliquots of 120 μl of the suspended cells (50,000/ml) were given to 60 μl of a serial dilution of the inhibitor. After 5 days, growth was determined using the MTT assay.
Background: Formazan colour is commonly taken as a measure of viable cells.

A further assay deals with M1. Put plainly: Growth inhibition of M1 cells (MTT assay). Type of assay: cell-based, mouse. The settings on record: Mus musculus, Fibroblast, 120 h, read-out: IC50 growth inhibition. Here is the method: as §4
In assay [4] the target is T3, V-ATPase holoenzyme from the midgut of the tobacco hornworm. Put plainly: Inhibition of purified V-ATPase holoenzyme activity. Type of assay: biochemical. Here is the method: as §1, §2, §3
Fifth instar larvae of M. sexta (Lepidoptera, Sphingidae), weighing 6–8 g, were reared under long day conditions (16 h of light) at 27°C using a synthetic diet modified according to Bell et al.

Another assay concerns A-594. Put plainly: Growth inhibition of A-594 cells (MTT assay). Type of assay: cell-based, human. The settings on record: Homo sapiens, 120 h, read-out: IC50 growth inhibition. Here is the method:
as §4

Another assay concerns KB-V1. Nature of the assay: Growth inhibition of multidrug-resistant KB-V1 cells (MTT assay), with or without verapamil. Type of assay: cell-based. The settings on record: 120 h; KB-V1, mdr human cervix carcinoma; without verapamil; MTT after 5 days. The procedure:
The novel antibiotics archazolids and apicularens (Fig. 1) were checked for their impact on the cell growth of a variety of mammalian cell lines from different tissues (Tab. 1). […] Apicularen B was the only exception, with an average IC50 value two orders of magnitude higher. Growth inhibition of the multidrug-resistant cell line KB-V1 was also measured in the presence of verapamil. […] The data in Tab 1. show, that unlike the archazolids, the apicularens are poor substrates of Pgp. To visualize the impact of the antibiotics, PtK2 (potoroo kidney) cells were incubated with the inhibitors and stained for intact acidic lysosomes (Fig. 2). […] The same observation was made with KB-3-1 cells (data not shown). […] Unlike the cell lines listed in Tab. 1, the growth of PtK2 cells was not completely stopped. The same holds true for A-498 cells (human kidney carcinoma). Both cell lines grow epithelial-like. There was obviously a differential reaction of cell lines to V-ATPase inhibitors. For A-431 cells (human epidermoid carcinoma) a dependence on the expression of the EGF receptor was shown.
as §4

For the next assay, the target named is T5, Na+/K+-ATPase (Sus scrofa, UniProt P05024).
T5 construct: highly purified, Na^+/K^+-ATPase containing plasma membranes from pig kidney; from tissue; host or cells: pig kidney, purified plasma membranes
Put plainly: Inhibition of Na+/K+-ATPase from pig kidney. Type of assay: biochemical. The procedure:
as §1, §2, §3

Setting [5] is: beef heart submitochondrial particles, inhibitor 1 μM.
The mark [6] stands for this setting: mouse heart crude membranes, inhibitor 1 μM.
The mark [7] stands for this setting: read-out: ATPase activity reduced to (remaining activity).
Setting [8] is: beef heart submitochondrial particles, specific F-ATPase inhibitors.
The mark [9] stands for this setting: mouse heart crude membranes, specific F-ATPase inhibitors.
[10] abbreviates: experiment 1, inhibitor 0.1 mM, control 19.0.
[11] abbreviates: experiment 1, inhibitor 1 mM, control 19.0.
Where [12] appears, read: experiment 2, inhibitor 1 mM, control 15.9.

Like-named read-outs stand apart in the source and are kept apart here.

T4 sequence (P31403 whole entry): as above

apicularen: the “ATPase activity reduced to (remaining activity)” value on F-ATPase [1] (setting [5]) and at F-ATPase [2] (setting [6]) was “approximately 80%” each time. The “effect of increased inhibitor concentration on F-ATPase activity” value at F-ATPase [1] (beef heart submitochondrial particles, inhibitor 10 μM) is given as “no substantial effect”; on F-ATPase [2] (mouse heart crude membranes, inhibitor 10 μM), “no substantial effect”.
Turning to `CO/C1=C\C(C)=C\[C@@H](C)[C@@H](O)[C@@H](C)C/C(C)=C/C=C/[C@H](OC)[C@@H]([C@@H](C)[C@@H](O)[C@H](C)[C@@]2(O)C[C@@H](OC(=O)/C=C/C(=O)NC3=C(O)CCC3=O)[C@H](C)[C@@H](C(C)C)O2)OC1=O` [bafilomycin B1], in assay [3], the “IC50 per mg of protein, purified V-ATPase” value is “ca. 0.5 nmol per mg of protein”. For the same molecule, in [3] (read-out: half-maximal inhibition concentration of purified V-ATPase), the IC50 was roughly 10 nM. Moreover, at Vo subunit c, the “labelling of / binding to subunit c” value was “prevented”.
For the molecule `C/C=C/[C@H]1O[C@@](O)([C@@H](C)[C@H](O)[C@H](C)[C@H]2OC(=O)/C(OC)=C/C(C)=C/[C@@H](C)[C@@H](O)[C@@H](CC)[C@@H](O)[C@H](C)C/C(C)=C/C=C/[C@@H]2OC)C[C@@H](O)[C@@H]1C` [concanamycin, reference compound], the remaining activity at 1 µM at F-ATPase [1] (setting [7]) and at F-ATPase [2] (setting [7]) was roughly 80% throughout.
Regarding `[N-]=[N+]=[N-]` [azide, reference compound], the “ATPase activity reduced to (remaining activity)” value on F-ATPase [1] (setting [8]) and at F-ATPase [2] (setting [9]) was “around 25%” in each case.
On to `CNC(=O)O[C@@H](CC(C)C)c1nc([C@H]2OC(=O)/C=C/C/C(C)=C/[C@@H](O)[C@@H](C)\C=C(C)/C=C(C)\C=C\[C@@H](O)[C@H](C)[C@H](OC)/C(C)=C/C=C/[C@@H]2C)cs1` [archazolid B], for which the “inhibition of bacterial growth” value in the assay with bacterial growth is “failed to inhibit”. In addition, the IC50 in the assay on L-929 was 1.1 nM; in the assay with 3Y1, 1.1 nM; in the assay on M1 it was 0.35 nM; in assay [4], roughly 20 nM; with A-594, 0.69 nM; with KB-V1 it was 35 nM. Further, in [4] (equivalent of the half-maximal concentration), the “IC50 per mg of protein, purified V-ATPase” value was “ca. 0.8 nmol per mg of protein”.
Regarding `CC[C@H]1/C=C/C=C/C[C@@H](C)[C@H](O)[C@@](C)(O)C(=O)[C@@H](C)[C@H](O)[C@@H](C)C(=O)[C@@H](C)[C@H](O)[C@@H](C)/C=C/C(=O)O[C@@H]2[C@H](C)[C@H](CC1)O[C@]1(CC[C@H](C)[C@H](C[C@@H](C)O)O1)[C@H]2C` [oligomycin, reference compound], the “ATPase activity reduced to (remaining activity)” value at F-ATPase [1] (setting [8]) and on F-ATPase [2] (setting [9]) was “around 25%” throughout.
`C[C@@H]1O[C@@H](O[C@H]2C[C@@H](O)[C@]3(CO)[C@H]4[C@H](O)C[C@]5(C)[C@@H](C6=CC(=O)OC6)CC[C@]5(O)[C@@H]4CC[C@]3(O)C2)[C@H](O)[C@H](O)[C@H]1O` [ouabain]: the “specific activity of Na+/K+-ATPase” value came out at 5.2 µmol/mg/min on Na+/K+-ATPase (setting [10]), 0 µmol/mg/min at Na+/K+-ATPase (setting [11]) and 0 µmol/mg/min on Na+/K+-ATPase (setting [12]). Also, the “effect on Na+/K+-ATPase activity” value on Na+/K+-ATPase (inhibitor 1 mM) was “completely inhibited”.
As for `CO/C1=C\C(C)=C\[C@@H](C)[C@@H](O)[C@@H](C)C/C(C)=C/C=C/[C@H](OC)[C@@H]([C@@H](C)[C@@H](O)[C@H](C)[C@@]2(O)C[C@@H](O)[C@H](C)[C@@H](C(C)C)O2)OC1=O` [bafilomycin, reference compound], the “ATPase activity reduced to (remaining activity)” value at F-ATPase [1] (setting [5]) and at F-ATPase [2] (setting [6]) was “approximately 80%” each time.
With `[O]=[V]([O-])([O-])[O-]` [vanadate], the entries for the “specific activity of Na+/K+-ATPase” value at Na+/K+-ATPase (setting [10]), at Na+/K+-ATPase (setting [11]) and at Na+/K+-ATPase (setting [12]) were 2.0 µmol/mg/min, 0 µmol/mg/min and 0 µmol/mg/min, respectively. The “effect on Na+/K+-ATPase activity” value on Na+/K+-ATPase (inhibitor 1 mM) is given as “completely inhibited”.
